Article PMC4749225, “Azidobupramine, an Antidepressant-Derived Bifunctional Neurotransmitter Transporter Ligand Allowing Covalent Labeling and Attachment of Fluorophores” (PLoS ONE, 2016)
Where two headings read alike, the source gives them in different places. One block for each molecule: values may come before it.

How the values were obtained:
rSERT [1] = biological target: T1, rSERT (Rattus norvegicus, UniProt P31652); assay: Radioligand binding assay (RBA), competition with [3H]-citalopram, membranes of T-REx-SERT cells; settings: for IC50: 0.5 nM [3H]-citalopram, 34°C, 60 min; for Ki: IC50 converted to Ki according to Cheng-Prusoff
T1 construct: expressed in transfected cells; host or cells: T-REx-SERT cells (T-REx 293 based, tetracycline-inducible), gift of C.G. Tate
Procedure: Tetracycline induced T-REx-SERT cells were mechanically disrupted with a hypotonic Tris-buffer (50 mM Tris, pH 7.9, proteinase inhibitor) in a two step procedure: dounce-homogenisation (Potter S, B.Braun, Melsungen, Germany) followed by an ultrasound treatment (sonifier W-250, Branson, CT, USA). Homogenates were centrifuged first at 800 rcf (10’, 4°C), followed by a second centrifugation step at 100,000 rcf (60’, 4°C). The resulting pellet was re-suspended in reaction-buffer RB1 (50 mM Tris-HCl, 150 mM NaCl, 5 mM KCl, proteinase inhibitor, pH 7.9), and stored at -80°C after protein determination (Pierce® BCA Protein Assay, Thermo Scientific, IL, USA).
Drugs were diluted in DMSO as solvent. Incubation was carried out at 34°C for 60’, and terminated by rapid filtration over polyethyleneimine preincubated GF/C filters using a Brandell MWXR-97TI cell harvester (Gaithersburg, MD, USA). Filters were washed three times with 2 ml of ice cold reaction-buffer RB1 and then incubated with scintillation liquid; radioactivity was measured by beta counting (MicroBeta, PerkinElmer LAS, Boston, MA, USA).

rSERT [2] = biological target: T1, rSERT; assay: PAL of 17 in living T-REx-SERT cells followed by CuAAC rhodamine labelling, with competitor; assay type: cell-based; settings: 17 10 μM; UV-light 312 nm
Procedure: T-REx-SERT cells expressing rSERT-His10-FLAG were kindly provided by C.G. Tate (MRC Laboratory of Molecular Biology, Cambridge, UK) [27]; cells were cultivated in suspension (FreeStyle™ 293 Expression medium, 10% FBS, antibiotic-antimycotic, and pyruvate); for selection purpose, 5 μg/ml blasticidin and 200 μg/ml zeocin were used; expression was induced by adding 1 μg/ml tetracycline for 5 days.
(§2) For all these experiments, rSERT was chosen as model target. The PAL-reaction was conducted either using rSERT-enriched protein material or living cells. In both cases, the subsequent CuAAC-reaction took place after the double-tagged rSERT-His10-FLAG was immobilized on ANTI-FLAG® M2 Affinity-gel (SigmaAldrich, MO, USA).
This was followed by UV-light induced covalent linkage (312 nm, 2x 60”, RT). The further processing was as described above, i.e. membrane preparation, solubilization and immobilization of rSERT to ANTI-FLAG® M2 Affinity-gel, CuAAC-reaction followed by protein elution, and SDS-PAGE.
Within the fluorescence based interaction studies of 17 with rSERT, the fluorescence signal was recorded with the ChemiDoc MP detection-system and analyzed using ImageLab (BioRad, CA, USA); for quantification, only those fluorescent signals were taken that correspond to Western blot verified rSERT (between 70-100 kDa). Recorded fluorescent signals were normalized to the Western-blot signal of rSERT. […]

hNET = biological target: T2, hNET (Homo sapiens, UniProt P23975); assay: Competitive MS Binding Assay (MSBA), (1R,3S)-indatraline as marker, HEK293 membrane fractions; settings: read-out: Ki, NET
T2 construct: expressed in transfected cells
Procedure: (§1) Competitive MSBAs to characterize the affinity of test compounds employing (1R,3S)-indatraline as a marker for hDAT, hNET and hSERT, respectively, were performed exactly as described by Grimm et al.. For this purpose, membrane fractions obtained from HEK293 cell lines stably expressing the corresponding target protein were incubated in presence of a fixed concentration of (1R,3S)-indatraline together with varying concentrations of test compounds in 96 well plates. After separation of the non-bound marker by vacuum filtration from the binding samples, bound (1R,3S)-indatraline remaining on the filter was eluted with acetonitrile (containing internal standard) and quantified by LC-ESI-MS/MS. Subsequently, inhibition of (1R,3S)-indatraline binding caused by test compounds could be analyzed essentially in the same way as described for radioligand binding assays.

hDAT = biological target: T3, hDAT (Homo sapiens, UniProt Q01959); assay: as above
T3 construct: expressed in transfected cells
Procedure: as §1

hSERT = biological target: T4, hSERT (Homo sapiens, UniProt P31645); assay: as above
T4 construct: expressed in transfected cells
Procedure: as §1

rSERT [3] = biological target: T1, rSERT; assay: PAL and CuAAC fluorescence assay of 17 on rSERT-enriched material immobilized on ANTI-FLAG M2 affinity gel, with competitors; assay type: binding; settings: for decrease in binding signal of 17 at enriched rSERT by competitor: 17 1 μM, competitor 1 mM (1000 fold molar excess), PAL then CuAAC rhodamine fluorescence
Procedure: as §2
For the interaction analysis of azidobupramine (17) with rSERT-enriched material, 1 mg of membrane preparation was solubilized in reaction-buffer RB3 (52.6 mM Tris/HCl, 126.4 mM NaCl, 5.26 mM KCl, 1% Triton X-100, proteinase inhibitor, pH 7.9). Then rSERT was immobilized on ANTI-FLAG® M2 Affinity-gel (over night, 4°C, constant agitation), and unbound protein was removed by three washing steps with reaction-buffer RB4 (25 mM HEPES/NaOH, 126.4 mM NaCl, 5.26 mM KCl, proteinase inhibitor, pH 7.9). […] This was followed by UV-light exposure (312 nm, 2x 45”, RT) using the Dual Transilluminator from Stratagene (5x8 Watt, La Jolla, CA, USA), and copper mediated click reaction (60 μM Rhodamine-azide, 2.5 mM ascorbic acid, 250 μM CuSO4, and 500 μM bis[(tertbutyltriazoyl)methyl]-[(2-carboxymethyltriazoyl)methyl]amine (BTTAA), 60’, RT, constant agitation) [31].
Within the fluorescence based interaction studies of 17 with rSERT, the fluorescence signal was recorded with the ChemiDoc MP detection-system and analyzed using ImageLab (BioRad, CA, USA); for quantification, only those fluorescent signals were taken that correspond to Western blot verified rSERT (between 70-100 kDa). Recorded fluorescent signals were normalized to the Western-blot signal of rSERT.

T1 sequence (P31652 whole entry): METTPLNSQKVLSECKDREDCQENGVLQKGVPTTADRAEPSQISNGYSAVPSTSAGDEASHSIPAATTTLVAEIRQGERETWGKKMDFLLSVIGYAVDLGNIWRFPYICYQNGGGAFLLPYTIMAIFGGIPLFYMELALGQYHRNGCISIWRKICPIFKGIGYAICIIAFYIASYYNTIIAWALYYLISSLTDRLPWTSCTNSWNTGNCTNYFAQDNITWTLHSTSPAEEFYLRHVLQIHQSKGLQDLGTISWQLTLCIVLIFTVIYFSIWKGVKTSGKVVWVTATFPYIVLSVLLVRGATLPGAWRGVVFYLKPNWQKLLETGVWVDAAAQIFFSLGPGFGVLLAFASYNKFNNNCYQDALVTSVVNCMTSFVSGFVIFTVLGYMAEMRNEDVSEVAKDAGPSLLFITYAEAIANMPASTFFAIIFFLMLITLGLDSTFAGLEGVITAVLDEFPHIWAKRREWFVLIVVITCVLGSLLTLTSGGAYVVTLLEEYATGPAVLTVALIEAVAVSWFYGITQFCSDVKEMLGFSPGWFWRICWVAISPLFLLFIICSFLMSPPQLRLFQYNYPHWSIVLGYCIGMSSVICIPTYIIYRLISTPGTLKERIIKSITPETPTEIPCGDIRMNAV
T3 sequence (Q01959 whole entry): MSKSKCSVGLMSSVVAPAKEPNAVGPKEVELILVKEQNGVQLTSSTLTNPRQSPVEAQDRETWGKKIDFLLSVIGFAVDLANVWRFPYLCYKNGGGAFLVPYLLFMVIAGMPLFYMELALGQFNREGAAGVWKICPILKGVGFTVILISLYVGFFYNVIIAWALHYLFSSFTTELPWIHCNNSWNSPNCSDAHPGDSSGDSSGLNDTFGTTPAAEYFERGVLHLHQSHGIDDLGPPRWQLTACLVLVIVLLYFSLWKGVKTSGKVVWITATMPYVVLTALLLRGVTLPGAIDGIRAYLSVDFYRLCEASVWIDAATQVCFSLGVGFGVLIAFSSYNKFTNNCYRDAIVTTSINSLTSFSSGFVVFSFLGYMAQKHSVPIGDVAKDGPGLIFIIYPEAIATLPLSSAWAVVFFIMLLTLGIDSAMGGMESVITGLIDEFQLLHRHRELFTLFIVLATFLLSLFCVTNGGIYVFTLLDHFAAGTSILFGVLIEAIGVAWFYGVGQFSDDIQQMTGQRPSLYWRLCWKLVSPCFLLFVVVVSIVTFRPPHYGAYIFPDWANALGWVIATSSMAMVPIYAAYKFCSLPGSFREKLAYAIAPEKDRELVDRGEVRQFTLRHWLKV
T4 sequence (P31645 whole entry): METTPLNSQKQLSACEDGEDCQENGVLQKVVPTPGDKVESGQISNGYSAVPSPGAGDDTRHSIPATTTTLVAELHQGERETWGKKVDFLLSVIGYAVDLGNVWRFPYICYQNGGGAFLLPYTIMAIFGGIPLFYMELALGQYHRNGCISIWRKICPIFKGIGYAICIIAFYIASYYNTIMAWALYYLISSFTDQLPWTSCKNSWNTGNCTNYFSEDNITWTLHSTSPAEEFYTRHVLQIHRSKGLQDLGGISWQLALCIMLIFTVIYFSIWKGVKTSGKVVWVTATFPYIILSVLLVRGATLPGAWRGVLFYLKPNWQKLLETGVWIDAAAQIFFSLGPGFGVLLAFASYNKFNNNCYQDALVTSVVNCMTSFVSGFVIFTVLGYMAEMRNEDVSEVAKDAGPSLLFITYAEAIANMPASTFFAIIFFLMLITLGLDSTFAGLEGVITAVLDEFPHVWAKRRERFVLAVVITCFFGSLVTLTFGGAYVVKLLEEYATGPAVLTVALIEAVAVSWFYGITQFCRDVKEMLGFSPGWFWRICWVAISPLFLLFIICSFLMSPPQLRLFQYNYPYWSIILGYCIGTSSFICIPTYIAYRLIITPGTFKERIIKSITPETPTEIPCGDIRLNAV
T2 sequence (P23975 whole entry): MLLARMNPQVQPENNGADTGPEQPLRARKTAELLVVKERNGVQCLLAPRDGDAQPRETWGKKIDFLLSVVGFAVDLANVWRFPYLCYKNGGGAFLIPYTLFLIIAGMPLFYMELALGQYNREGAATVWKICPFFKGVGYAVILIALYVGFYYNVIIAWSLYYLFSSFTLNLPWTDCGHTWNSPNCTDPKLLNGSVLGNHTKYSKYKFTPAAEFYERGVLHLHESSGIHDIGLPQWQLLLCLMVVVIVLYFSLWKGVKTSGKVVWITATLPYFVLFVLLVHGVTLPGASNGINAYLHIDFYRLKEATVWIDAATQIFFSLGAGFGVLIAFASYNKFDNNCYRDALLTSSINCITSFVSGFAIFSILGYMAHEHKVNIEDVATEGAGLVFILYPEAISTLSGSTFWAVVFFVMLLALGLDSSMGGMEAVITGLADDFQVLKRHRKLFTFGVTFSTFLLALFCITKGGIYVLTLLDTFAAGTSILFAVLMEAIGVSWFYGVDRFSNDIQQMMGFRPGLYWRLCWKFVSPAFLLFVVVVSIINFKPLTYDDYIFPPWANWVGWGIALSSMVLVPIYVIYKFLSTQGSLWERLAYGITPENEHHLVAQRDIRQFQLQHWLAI

IC50 (rSERT [1]): 1550 nM
Ki (rSERT [1]): 1120 nM
Compound: CN(CCCN1c2ccccc2CCc2ccccc21)CC(=O)c1ccc(Cl)cc1 [compound 5, lofepramine, reference compound]

IC50 (rSERT [1]): 12 nM
Ki (rSERT [1]): 8.82 nM
Compound: CN(C)CCCN1c2ccccc2CCc2ccc(N=[N+]=[N-])cc21 [compound 11, 3-(3-azido-10,11-dihydro-5H-dibenzo[b,f]azepin-5-yl)-N,N-dimethyl propan-1-amine]

IC50 (rSERT [1]): 85.1 nM
Ki (rSERT [1]): 62.4 nM
Compound: CNCCCN1c2ccccc2CCc2ccc(N=[N+]=[N-])cc21 [compound 15, 3-(3-azido-10,11-dihydro-5H-dibenzo[b,f]azepin-5-yl)-N-methylpro-pan-1-amine]

Ki (hNET): 115 nM
Ki (hDAT; read-out: Ki, DAT): 1640 nM
Ki (hDAT; three independent experiments, each in triplicates, read-out: pKi ±SEM, DAT (converted)): 1580 nM
drop in affinity to SERT, MSBA versus RBA (hSERT; Ki 103 nM (MSBA, human) vs 22.2 nM (RBA, rat)): 4.6 fold
Ki (hSERT; MSBA, read-out: Ki, SERT): 103 nM
covalent labelling of rSERT by PAL and visualization by CuAAC (rSERT [3]; rSERT-enriched material, UV-light 312 nm): interacts predominantly with rSERT
IC50 (rSERT [1]): 30.2 nM
Ki (rSERT [1]): 22.2 nM
Compound: C#CCCN(C)CCCN1c2ccccc2CCc2ccc(N=[N+]=[N-])cc21 [compound 17, N-(3-(3-azido-10,11-dihydro-5H-dibenzo[b,f]azepin-5-yl)propyl)-N-methylbut-3-yn-1-amine]
covalent labelling of rSERT in living cells (rSERT [2]): forms covalent bonds with rSERT after UV-light exposure in living cells

decrease in binding signal of 17 at enriched rSERT by competitor (rSERT [3]): does not
decrease in binding signal of 17 at enriched rSERT by competitor (rSERT [3]; listed as MRT): no effect
Compound: CN1CCN2c3ncccc3Cc3ccccc3C2C1 (centres unmarked) [mirtazapine]
